Results as given in patent publication US10350213B2 (AI Therapeutics, Inc., priority 2015, dated 2019).
Like-named read-outs stand apart in the source and are kept apart here.

Legend:
NHL cell lines = assay: 7 day cell viability assay, NHL cell lines; type: cell-based; conditions: 7 day assay; for IC50: 168 h
Description: (§1) This is exemplified in FIG. 2A for the HCT116 colorectal carcinoma cells. […] And all NHL subtypes were sensitive in this assay, including mantle, follicular, Burkitt's, DLBCL-ABC, DLBCL-GCB, and double-hit DLBCL.

[1] = test system: non-cancer (normal) cells; assay: Cell viability assay, non-cancer (normal) cells; type: cell-based
Description: as §1

[2] = test system: CAPAN2 (Human pancreatic cancer); assay: CellTiterGlo cell viability assay; type: cell-based; conditions: Capan-2
[3] = test system: Jurkat (Human T-cell leukemia); assay: CellTiterGlo cell viability assay; type: cell-based
[4] = test system: A549 (Human lung carcinoma); assay: CellTiterGlo cell viability assay; type: cell-based
PIKfyve = target: T1, PIKfyve (Homo sapiens, UniProt Q9Y2I7); assay: Chemical capture mass spectrometry (CCMS); type: binding; conditions: apilimod as competitor ligand
T1 construct: whole cell lysate prepared from human neuroglioma cells; endogenous in cells; host or cells: human neuroglioma cells (whole cell lysate)
T1 sequence (Q9Y2I7 whole entry): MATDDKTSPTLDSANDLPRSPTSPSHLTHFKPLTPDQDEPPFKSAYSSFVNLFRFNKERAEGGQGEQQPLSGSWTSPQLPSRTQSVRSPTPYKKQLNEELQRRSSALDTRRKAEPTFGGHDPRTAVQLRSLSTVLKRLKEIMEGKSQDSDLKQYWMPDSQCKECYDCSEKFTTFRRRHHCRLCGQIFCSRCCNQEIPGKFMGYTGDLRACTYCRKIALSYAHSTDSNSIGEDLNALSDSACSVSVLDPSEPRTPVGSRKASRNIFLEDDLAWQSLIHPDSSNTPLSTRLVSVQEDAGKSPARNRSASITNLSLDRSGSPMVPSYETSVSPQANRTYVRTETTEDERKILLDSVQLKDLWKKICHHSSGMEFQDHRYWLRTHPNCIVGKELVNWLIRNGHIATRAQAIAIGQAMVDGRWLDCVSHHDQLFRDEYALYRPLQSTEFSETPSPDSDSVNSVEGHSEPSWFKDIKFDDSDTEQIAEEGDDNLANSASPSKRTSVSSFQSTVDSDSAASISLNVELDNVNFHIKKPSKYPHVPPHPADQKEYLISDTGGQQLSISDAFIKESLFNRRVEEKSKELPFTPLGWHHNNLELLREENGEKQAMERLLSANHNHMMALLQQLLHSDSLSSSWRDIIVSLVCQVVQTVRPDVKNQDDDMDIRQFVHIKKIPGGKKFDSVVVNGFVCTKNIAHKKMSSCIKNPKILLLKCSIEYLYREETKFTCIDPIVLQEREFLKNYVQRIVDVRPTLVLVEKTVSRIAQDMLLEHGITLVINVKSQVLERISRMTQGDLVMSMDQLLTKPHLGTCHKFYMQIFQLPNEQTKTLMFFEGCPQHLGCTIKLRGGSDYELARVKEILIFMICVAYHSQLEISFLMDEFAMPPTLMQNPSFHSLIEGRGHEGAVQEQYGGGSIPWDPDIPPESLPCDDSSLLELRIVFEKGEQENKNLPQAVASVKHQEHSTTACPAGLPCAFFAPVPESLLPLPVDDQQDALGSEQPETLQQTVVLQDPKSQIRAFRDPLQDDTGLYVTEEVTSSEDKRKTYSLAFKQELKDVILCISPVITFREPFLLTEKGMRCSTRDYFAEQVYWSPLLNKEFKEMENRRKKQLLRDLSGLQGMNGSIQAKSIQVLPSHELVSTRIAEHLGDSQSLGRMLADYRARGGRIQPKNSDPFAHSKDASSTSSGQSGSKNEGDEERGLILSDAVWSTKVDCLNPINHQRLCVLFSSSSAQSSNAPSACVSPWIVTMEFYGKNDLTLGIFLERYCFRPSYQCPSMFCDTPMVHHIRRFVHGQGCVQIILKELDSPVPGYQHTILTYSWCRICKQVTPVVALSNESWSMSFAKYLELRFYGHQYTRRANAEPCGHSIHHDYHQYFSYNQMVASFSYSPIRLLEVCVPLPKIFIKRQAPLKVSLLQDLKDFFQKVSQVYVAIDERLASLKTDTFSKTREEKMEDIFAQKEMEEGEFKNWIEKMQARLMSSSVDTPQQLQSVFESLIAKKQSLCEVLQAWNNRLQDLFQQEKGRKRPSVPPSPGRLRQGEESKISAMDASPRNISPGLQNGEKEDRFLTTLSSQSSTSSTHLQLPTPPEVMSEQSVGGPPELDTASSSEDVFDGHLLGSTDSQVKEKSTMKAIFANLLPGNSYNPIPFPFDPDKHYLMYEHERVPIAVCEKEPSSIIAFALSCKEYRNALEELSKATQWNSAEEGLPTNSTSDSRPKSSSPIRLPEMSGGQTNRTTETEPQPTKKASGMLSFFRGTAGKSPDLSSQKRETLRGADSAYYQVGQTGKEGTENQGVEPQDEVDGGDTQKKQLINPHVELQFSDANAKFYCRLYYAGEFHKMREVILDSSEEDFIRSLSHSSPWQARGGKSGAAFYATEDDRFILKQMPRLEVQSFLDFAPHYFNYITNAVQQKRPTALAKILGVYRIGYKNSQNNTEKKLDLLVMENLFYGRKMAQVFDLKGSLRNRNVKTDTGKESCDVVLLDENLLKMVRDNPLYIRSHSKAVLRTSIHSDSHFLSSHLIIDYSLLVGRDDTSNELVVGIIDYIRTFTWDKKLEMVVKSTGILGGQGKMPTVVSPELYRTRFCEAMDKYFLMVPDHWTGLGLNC
Procedure: (§2) This work was performed at Caprotec Bioanalytics GmbH, Berlin Germany. See Michaelis et al., J. Med. Chem., 55 3934-44 (2012) and references cited therein. […] Capture conditions were optimized in whole cell lysate, e.g. minimization of non-specific interactions of the proteins with capture compounds, concentration of reagents and proteins to obtain maximum binding of proteins and capture compounds, etc. […] These specific binders were further subjected to stringent data analysis criteria to determine specificity after unbiased data evaluation. Specific protein binders were ranked according to their fold change (FC) values in the capture experiments.

Vac14 = target: T2, Vac14 (Homo sapiens, UniProt Q08AM6); assay: Chemical capture mass spectrometry (CCMS); type: binding; conditions: apilimod as competitor ligand
T2 construct: whole cell lysate prepared from human neuroglioma cells; endogenous in cells; host or cells: human neuroglioma cells (whole cell lysate)
T2 sequence (Q08AM6 whole entry): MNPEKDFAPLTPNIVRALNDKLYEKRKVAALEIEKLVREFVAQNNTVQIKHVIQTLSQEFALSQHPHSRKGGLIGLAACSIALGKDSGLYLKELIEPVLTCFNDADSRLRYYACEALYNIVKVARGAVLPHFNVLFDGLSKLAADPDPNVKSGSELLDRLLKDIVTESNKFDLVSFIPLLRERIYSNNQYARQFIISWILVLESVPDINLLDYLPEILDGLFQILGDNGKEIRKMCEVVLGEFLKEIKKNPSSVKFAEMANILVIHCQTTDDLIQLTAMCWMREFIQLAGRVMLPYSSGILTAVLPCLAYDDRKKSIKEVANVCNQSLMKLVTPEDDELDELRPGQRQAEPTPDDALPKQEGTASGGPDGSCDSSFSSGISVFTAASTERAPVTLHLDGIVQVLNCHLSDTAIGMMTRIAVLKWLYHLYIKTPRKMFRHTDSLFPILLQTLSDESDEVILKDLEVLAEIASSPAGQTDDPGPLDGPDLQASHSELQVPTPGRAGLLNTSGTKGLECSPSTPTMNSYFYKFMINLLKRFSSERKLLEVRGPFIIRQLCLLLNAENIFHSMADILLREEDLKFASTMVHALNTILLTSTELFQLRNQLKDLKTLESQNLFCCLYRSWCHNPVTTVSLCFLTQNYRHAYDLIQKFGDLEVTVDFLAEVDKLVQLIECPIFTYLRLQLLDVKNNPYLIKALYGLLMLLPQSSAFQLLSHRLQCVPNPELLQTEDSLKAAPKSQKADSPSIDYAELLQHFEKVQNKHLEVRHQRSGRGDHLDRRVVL
T2 sequence (Q9Y2I7 2-2098 partner): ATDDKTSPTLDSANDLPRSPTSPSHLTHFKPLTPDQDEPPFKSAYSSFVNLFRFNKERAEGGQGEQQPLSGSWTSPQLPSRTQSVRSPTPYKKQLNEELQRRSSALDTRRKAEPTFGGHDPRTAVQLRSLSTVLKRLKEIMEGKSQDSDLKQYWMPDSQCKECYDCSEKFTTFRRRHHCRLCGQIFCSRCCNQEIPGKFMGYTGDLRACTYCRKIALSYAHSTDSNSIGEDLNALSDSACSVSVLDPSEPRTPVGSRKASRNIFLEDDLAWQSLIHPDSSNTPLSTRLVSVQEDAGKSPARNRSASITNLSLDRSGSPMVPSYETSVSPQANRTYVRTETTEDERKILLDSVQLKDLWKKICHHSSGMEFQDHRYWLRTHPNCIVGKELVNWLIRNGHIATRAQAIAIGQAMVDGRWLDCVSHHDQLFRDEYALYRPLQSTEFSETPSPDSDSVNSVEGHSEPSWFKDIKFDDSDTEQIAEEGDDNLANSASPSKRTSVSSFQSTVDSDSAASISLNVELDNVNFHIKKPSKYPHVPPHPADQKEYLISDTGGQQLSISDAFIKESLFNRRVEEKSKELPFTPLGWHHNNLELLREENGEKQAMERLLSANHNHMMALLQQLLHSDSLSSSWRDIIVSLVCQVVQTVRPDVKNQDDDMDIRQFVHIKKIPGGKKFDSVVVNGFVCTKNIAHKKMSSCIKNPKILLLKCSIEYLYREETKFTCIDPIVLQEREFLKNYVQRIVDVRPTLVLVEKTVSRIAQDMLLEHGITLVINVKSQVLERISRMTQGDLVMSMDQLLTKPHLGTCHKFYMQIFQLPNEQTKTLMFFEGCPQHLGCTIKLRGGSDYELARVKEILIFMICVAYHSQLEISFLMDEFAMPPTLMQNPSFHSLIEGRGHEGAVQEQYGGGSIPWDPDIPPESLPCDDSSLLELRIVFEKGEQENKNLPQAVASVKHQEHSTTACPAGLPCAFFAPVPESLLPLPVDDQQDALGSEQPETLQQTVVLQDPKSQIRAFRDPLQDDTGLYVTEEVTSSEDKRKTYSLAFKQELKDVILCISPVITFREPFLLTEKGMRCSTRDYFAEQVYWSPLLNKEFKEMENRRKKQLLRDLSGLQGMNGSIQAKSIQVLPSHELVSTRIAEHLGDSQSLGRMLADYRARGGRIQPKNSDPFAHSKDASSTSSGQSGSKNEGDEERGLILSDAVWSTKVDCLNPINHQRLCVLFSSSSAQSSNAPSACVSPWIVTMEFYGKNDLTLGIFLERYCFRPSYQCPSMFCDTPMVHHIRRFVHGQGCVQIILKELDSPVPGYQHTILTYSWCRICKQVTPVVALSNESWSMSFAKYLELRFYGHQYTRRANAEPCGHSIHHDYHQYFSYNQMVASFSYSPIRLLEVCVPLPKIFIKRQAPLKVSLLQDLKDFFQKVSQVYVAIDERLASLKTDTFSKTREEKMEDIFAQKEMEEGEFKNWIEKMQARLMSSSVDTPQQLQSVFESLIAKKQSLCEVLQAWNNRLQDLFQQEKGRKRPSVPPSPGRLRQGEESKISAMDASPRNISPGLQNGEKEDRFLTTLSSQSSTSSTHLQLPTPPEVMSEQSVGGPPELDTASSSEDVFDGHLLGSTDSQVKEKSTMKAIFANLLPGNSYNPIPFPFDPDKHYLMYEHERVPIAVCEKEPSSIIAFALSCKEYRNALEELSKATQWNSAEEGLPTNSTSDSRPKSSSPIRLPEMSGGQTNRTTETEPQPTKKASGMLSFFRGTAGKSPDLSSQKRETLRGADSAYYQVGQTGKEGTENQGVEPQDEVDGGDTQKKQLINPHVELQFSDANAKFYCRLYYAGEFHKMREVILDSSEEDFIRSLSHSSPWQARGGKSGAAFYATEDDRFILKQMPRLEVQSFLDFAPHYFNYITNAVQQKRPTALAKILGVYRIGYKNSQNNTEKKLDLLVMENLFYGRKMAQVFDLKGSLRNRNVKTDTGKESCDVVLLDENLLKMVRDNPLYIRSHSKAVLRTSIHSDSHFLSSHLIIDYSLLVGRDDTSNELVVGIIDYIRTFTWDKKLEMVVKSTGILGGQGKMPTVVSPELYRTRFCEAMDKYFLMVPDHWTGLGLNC
Procedure: as §2

[5] = test system: peripheral blood mononuclear cells; assay: Vacuole formation in peripheral blood mononuclear cells; type: cell-based; conditions: treatment for 24 h
[6] = test system: M0591K (Human neuroblastoma); assay: CellTiterGlo cell viability assay; type: cell-based
[7] = test system: MiaPaCa-2 (Human pancreatic cancer); assay: CellTiterGlo cell viability assay; type: cell-based; conditions: MIA PaCa-2
all cell lines = assay: Longer cell viability assays (3, 5, and 7 days); type: cell-based; conditions: 168 h, 7-day exposure
Description: as §1

[8] = test system: H358 (Human lung carcinoma); assay: CellTiterGlo cell viability assay; type: cell-based; conditions: NCI-H358
H4 neuroglioma cells = assay: Endolysosomal (vacuole) phenotype, DIC images; type: cell-based, Human; conditions: 100 nM apilimod, 24 hrs
Description: PIKfyve produces the lipid products PI(3,5)P2 and PI5P, which in turn serve to establish membrane identity and control endolysosomal dynamics. Studies have shown that the PI(3,5)P2 depletion arising from inhibition of PIKfyve produces a swollen endolysosome phenotype. […] This phenotype was reversible, and cancer cell lines reverted to normal appearance within 3-4 days after drug removal.

H4 (Human neuroglioma) = assay: CellTiterGlo cell viability assay; type: cell-based
[9] = test system: PC-3 (Human prostate cancer); assay: CellTiterGlo cell viability assay; type: cell-based
[10] = test system: AsPC1 (Human pancreatic cancer); assay: CellTiterGlo cell viability assay; type: cell-based
[11] = test system: 456 kinases (PIKfyve not included); assay: Kinase panel binding screen (DiscoveRx); conditions: screening concentration 1 μM
Description: Next, apilimod was screened against a comprehensive panel of kinases (PIKfyve not included).

[12] = test system: THP1 (Human acute monocytic leukemia); assay: CellTiterGlo cell viability assay; type: cell-based; conditions: THP-1
[13] = test system: SUDHL-6 human DLBCL cancer xenograft; assay: Subcutaneous SUDHL-6 human DLBCL cancer xenograft model; type: in vivo, NOD-SCID mice
Procedure: The tumor cells were sub-cultured twice weekly and harvested during exponential growth for tumor inoculation. NOD-SCID mice were γ-irradiated 24 hrs before inoculation. Each mouse was inoculated subcutaneously in the right flank with SU-DHL-6 tumor cells (5×10^6) in 0.1 ml of PBS with Matrigel (1:1). The tumors were then grown to a mean size of approximately 80-120 mm^3 and the mice were then split into 5 groups and treated as detailed in the Table 5.
Tumor size was measured twice a week in two dimensions using a caliper, and the volume is expressed in mm^3 using the formula: V=0.5 a×b^2 where a and b are the long and short diameters of the tumor, respectively.
Each mouse was inoculated subcutaneously in the right flank with SU-DHL-6 tumor cells (5×10^6) in 0.1 ml of PBS with Matrigel (1:1). The tumors were then grown to a mean size of approximately 80-120 mm^3 and the mice were then split into 6 groups and treated as detailed in the Table 6.

[14] = test system: synovial IL-12 and IL-23 expression; conditions: patients with rheumatoid arthritis; Krauz et al. 2012; cited from earlier work
IL-12/IL-23 synthesis = conditions: oral administration; patients with psoriasis; Wada et al. 2012; cited from earlier work

Structure (SMILES): Cc1cccc(/C=N/Nc2cc(N3CCOCC3)nc(OCCc3ccccn3)n2)c1 [apilimod]
- share of NHL cell lines sensitive to apilimod (NHL cell lines; 32 NHL cell lines tested): 72%
- IC50 (NHL cell lines; different NHL subtypes, read-out: IC50): < 0.125 µM
- IC50 (NHL cell lines; sensitive NHL cell lines, read-out: average IC50): 0.069 µM
- IC50 [1]: 15.8 µM
- IC50 [2]: > 2 µM
- IC50 [3]: 0.2 µM
- IC50 [4]: 0.11 µM
- log2 (FC) (PIKfyve; capture compound 0.1 μM, human neuroglioma whole cell lysate): 6.3
- log2 (FC) (PIKfyve; capture compound 0.5 μM): 6.2
- log2 (FC) (PIKfyve; capture compound 1.0 μM): 4.1
- log2 (FC) (PIKfyve; capture compound 2.0 μM): 4.3
- log2 (FC) (Vac14; capture compound 0.1 μM): 6.2
- log2 (FC) (Vac14; capture compound 0.5 μM): 5.6
- log2 (FC) (Vac14; capture compound 1.0 μM): Inf.
- log2 (FC) (Vac14; capture compound 2.0 μM): 3.9
- vacuole formation [5]: induces vacuole formation
- IC50 [6]: > 10 µM
- IC50 [7]: > 2 µM
- IC50 (all cell lines): < 0.125 µM
- IC50 [8]: > 2 µM
- cell phenotype (H4 neuroglioma cells): striking swollen endolysosomal (vacuole) phenotype
- IC50 (H4 (Human neuroglioma)): 0.25 µM
- IC50 [9]: 10 µM
- IC50 [10]: > 2 µM
- binding to kinase panel [11]: did not bind to any of the 456 kinases tested
- IC50 [12]: > 10 µM
- tumor growth inhibition ([13]; 75 mg/kg apilimod free base p.o. QD×5, 2 days off, QD×5, 31 days): 57%
- effect on body weight ([13]; all apilimod treatment arms, i.v. and p.o., 29 days): negligible effect on body weight
- reduction of tumor size ([13]; apilimod dimesylate 67.5 mg/kg (47 mg/kg free base) i.v. QD×5, 2 days off, QD×5, 29 days): 58%
- reduction of tumor growth ([13]; apilimod free base p.o. 150 mg/kg single dose (QD×5, 2 days off), 29 days): 64%
- reduction of tumor growth ([13]; apilimod free base p.o. 150 mg/kg split dose (75 mg/kg BID×5, 2 days off, BID×5), 29 days): 68%
- effect on synovial IL-12 and IL-23 expression [14]: failed to alter synovial IL-12 and IL-23 expression
- immunomodulatory activity (IL-12/IL-23 synthesis): showed immunomodulatory activity
